Data on 4 compounds can be found in PubChem BioAssay (NCI).

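Method: 48-hour compound exposure of cells in 96-well plates, five concentrations, linear interpolation of endpoints. Abbreviation: GI50, concentration required for 50% inhibition of growth. TGI: concentration producing complete growth inhibition.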 A value given as a limit tells only on which side of the number the result lay.

Some test systems named below: HCT-116 colon; NCI-H522 lung; A549 NSCLC; UACC-257 melanoma; HS 578T breast; K-562 leukemia; SNB-19 CNS; OVCAR-4 ovarian; HT29 colon; MDA-MB-231 breast.
Common to all, as to test: NCI tumour cell line growth inhibition, 48 h

`Cc1cc(NC(=O)c2ccc(C)c(Nc3nccc(-c4cccnc4)n3)c2)cc(-n2cnc(C)c2)c1`: the GI50 in the assay with HCT-116 colon was 932 nM; in the assay with NCI-H522 lung, 4890 nM; in the assay with A549 NSCLC it was 492 nM; in the assay with UACC-257 melanoma, 1530 nM; with HS 578T breast, 84.7 nM; with K-562 leukemia, 91.5 nM. Further, the GI50 with SNB-19 CNS was 5280 nM; with OVCAR-4 ovarian, 999 nM; in the assay on HT29 colon, 1730 nM; with MDA-MB-231 breast it was 1250 nM. Also, the TGI in the assay on HCT-116 colon came out at 3.28 µM; in the assay on NCI-H522 lung it was 15.3 µM; in the assay with A549 NSCLC, 8.7 µM; in the assay on UACC-257 melanoma, 5.92 µM; in the assay with HS 578T breast, 14.4 µM; in the assay on K-562 leukemia, 4.03 µM. Further, the TGI in the assay with SNB-19 CNS was 18.1 µM; in the assay on OVCAR-4 ovarian, 2.19 µM; with HT29 colon, 5.33 µM; with MDA-MB-231 breast it was 5.45 µM.

Regarding `Cc1n(Cc2ccc3ccccc3c2)cc[n+]1Cc1ccc2ccccc2c1`, the GI50 was 1070 nM in the assay with HCT-116 colon; 256 nM in the assay with NCI-H522 lung; 3810 nM with A549 NSCLC; 588 nM in the assay on UACC-257 melanoma; 1600 nM with HS 578T breast; 478 nM in the assay on K-562 leukemia. Also, the GI50 with SNB-19 CNS was 676 nM; in the assay with OVCAR-4 ovarian, 381 nM; in the assay with HT29 colon, 521 nM; in the assay with MDA-MB-231 breast, 1030 nM. For the same compound, the TGI with HCT-116 colon came out at 4.4 µM; in the assay with NCI-H522 lung, 1.81 µM; with A549 NSCLC, 21.3 µM; in the assay on UACC-257 melanoma it was 2.58 µM; with HS 578T breast, 11.3 µM; in the assay with K-562 leukemia it was 4.51 µM. In addition, the TGI with SNB-19 CNS amounted to 3.13 µM; in the assay on OVCAR-4 ovarian it was 6.36 µM; in the assay with HT29 colon it was 3.02 µM; with MDA-MB-231 breast it was 2.43 µM.

For `CN1CCc2c(Sc3ccc(C(=O)NO)cc3)c3ccccc3n2C1`, the GI50 in the assay on HCT-116 colon is 1700 nM; with NCI-H522 lung it was 1140 nM; with A549 NSCLC, 3290 nM; in the assay with UACC-257 melanoma it was 1750 nM; in the assay on HS 578T breast it was 2640 nM; with K-562 leukemia, 2910 nM. In addition, the GI50 with SNB-19 CNS was 2120 nM; in the assay on OVCAR-4 ovarian it was 1920 nM; with HT29 colon, 2830 nM; with MDA-MB-231 breast it was 1750 nM. For the same compound, the TGI in the assay on HCT-116 colon is 3.97 µM; in the assay on NCI-H522 lung it was 2.62 µM; with A549 NSCLC, 12.9 µM; in the assay with UACC-257 melanoma, 9.1 µM; in the assay with HS 578T breast it was 27 µM; with K-562 leukemia, greater than 33 µM. Besides, the TGI in the assay with SNB-19 CNS was 6.79 µM; in the assay on OVCAR-4 ovarian, 8.6 µM; with HT29 colon, 12.2 µM; in the assay on MDA-MB-231 breast, 4.19 µM.

As to `Cc1sc2nc(NCCc3c[nH]c4ccc(Cl)cc34)[nH]c(=O)c2c1C`, the GI50 in the assay with HCT-116 colon was 1840 nM; with NCI-H522 lung it was 1790 nM; in the assay on A549 NSCLC it was 2130 nM; in the assay with UACC-257 melanoma, 2140 nM; in the assay on HS 578T breast it was 1860 nM; in the assay with K-562 leukemia it was 3030 nM. For the same compound, the GI50 was 3540 nM in the assay on SNB-19 CNS, 3270 nM in the assay on OVCAR-4 ovarian, 3060 nM in the assay on HT29 colon and 2590 nM with MDA-MB-231 breast. Also, the TGI in the assay on HCT-116 colon was 7.07 µM; with NCI-H522 lung it was 3.91 µM; with A549 NSCLC it was 5.09 µM; in the assay on UACC-257 melanoma, 6.34 µM; with HS 578T breast, 6.25 µM; in the assay on K-562 leukemia it was 10.7 µM. Moreover, the TGI in the assay with SNB-19 CNS was determined as 13.2 µM; with OVCAR-4 ovarian, 13.4 µM; in the assay on HT29 colon it was 10.8 µM; in the assay on MDA-MB-231 breast it was 8.74 µM.
